From paper PMC5833756, “A novel ruthenium complex with xanthoxylin induces S-phase arrest and causes ERK1/2-mediated apoptosis in HepG2 cells through a p53-independent pathway” (Cell Death & Disease, 2018)
Several values for one entry are separate records, joined by “and”; a condition that tells them apart may be missing. Equal entries are not always repeated.

Columns and labels:
[1] = test system: HepG2 cells; experiment: Gene expression analysis by qPCR array (TaqMan Array Human Molecular Mechanisms of Cancer); type: cell-based; conditions: HepG2, 12 h; RCX 12 µM, DOX 2 µM
Method: HepG2 cells were plated in bottles for cell culture (7 × 10^4 cells/mL). […] The RNA was evaluated by fluorimetry using QuBit (Life Technologies; Camarillo, CA, USA). RNA reverse transcription was performed using a Superscript VILO™ Kit (Invitrogen Corporation; Waltham, MA, USA). A 96-well plate TaqMan® Array Human Molecular Mechanisms of Cancer (ID 4418806, Applied Biosystems^TM, Foster City, CA, USA) was used for the gene expression study by qPCR. The reactions were conducted in an ABI ViiA7 system (Applied Biosystems^TM; Foster City, CA, USA). The cycle conditions comprised 2 min at 50 °C, 20 s at 95 °C, then 40 cycles of 3 s at 95 °C and 30 s at 60 °C. The relative quantification (RQ) of mRNA expression was calculated by the 2^-ΔΔCT method[40] using Gene Expression Suite™ Software (Applied Biosystems^TM), and the cells treated with the negative control (0.2% DMSO) were used as a calibrator. The reactions were normalized by the geometric mean of the RQ of the reference genes GAPDH, 18S and HPRT1. All experiments were performed in DNase/RNase-free conditions.

[2] = test system: HT-29; type: cell-based, human; conditions: HT-29 (human colon adenocarcinoma), 72 h
[3] = test system: WT SV40 MEF; type: cell-based, mouse; conditions: 72 h
[4] = test system: SCC-15; type: cell-based, human; conditions: SCC-15 (human oral squamous cell carcinoma), 72 h
[5] = test system: SCC-4; type: cell-based, human; conditions: SCC-4 (human oral squamous cell carcinoma), 72 h
[6] = test system: calf thymus DNA; experiment: DNA intercalation assay (ethidium bromide displacement); type: binding; conditions: 20 μM, cell-free, 15 min
Method: DNA intercalation was assessed by examining the ability of the complex to displace ethidium bromide from ctDNA (Sigma-Aldrich)[36]. […] After a 15 min of incubation at room temperature, fluorescence was measured using the excitation and emission wavelengths of 320 nm and 600 nm, respectively, using the Spectramax Microplate Reader (Molecular Devices).

[7] = test system: HSC-3; type: cell-based, human; conditions: HSC-3 (human oral squamous cell carcinoma), 72 h
[8] = test system: caspase-8; experiment: Caspase-8 colorimetric activation assay; type: cell-based, human; conditions: HepG2, 48 h
Method: A caspase-3 colorimetric assay kit (Sigma-Aldrich), caspase-8 colorimetric assay kit (BioVision Inc.; Milpitas, CA, USA) and caspase-9 colorimetric assay kit (Invitrogen; Frederick, MD, USA) were used to investigate the activation of caspase-3, -8 and -9 in RCX-treated HepG2, respectively. […] Briefly, cells were lysed by incubation with cell lysis buffer on ice for 10 min and then centrifuged. Enzyme reactions were carried out in a 96-well flat-bottom microplate. To each reaction mixture, 5 μL of cell lysate was added. Absorbance at 405 nm was measured using the SpectraMax 190 Microplate Reader (Molecular Devices). The results are expressed as the specific activity (IU/mg protein) of each caspase.

[9] = test system: PBMC; type: cell-based; conditions: PBMC (human peripheral blood mononuclear cells, non-cancer), 72 h

## COc1cc([O-])c(C(C)=O)c(OC)c1.F[P-](F)(F)(F)(F)F.[Ru+2].c1cnc2c(c1)ccc1cccnc12.c1cnc2c(c1)ccc1cccnc12 [RCX, cis-[Ru(phen)2(xant)](PF6)]
[1]
  RQ ABL1 gene expression: 1.908
  RQ AKT1 gene expression: 1.685
  RQ AKT2 gene expression: 2.7 and 2.697
  RQ APC gene expression: 1.106
  RQ BAX gene expression: 0.887
  RQ BCAR1 gene expression: 2.9 and 2.846
  RQ BCL2L1 gene expression: 0.898
  RQ BCL2L11 gene expression: 9.8 and 9.786
  RQ BCL2 gene expression: 2.4 and 2.377
  RQ BID gene expression: 1.477
  RQ BRAF gene expression: 2.3 and 2.296
  RQ CASP8 gene expression: 1.493
  RQ CCND1 gene expression: 4.8 and 4.752
  RQ CCND3 gene expression: 2.4 and 2.397
  RQ CCNE1 gene expression: 0.674
  RQ CDC42 gene expression: 4.2 and 4.147
  RQ CDH1 gene expression: 1.051
  RQ CDK2 gene expression: 1.251
  RQ CDK4 gene expression: 2.7 and 2.737
  RQ CDKN1A gene expression: 0.628
  RQ CDKN1B gene expression: 0.5 and 0.543
  RQ CDKN2A gene expression: 3.8 and 3.836
  RQ CRK gene expression: 6.2 and 6.172
  RQ CTNNB1 gene expression: 1.930
  RQ CYCS gene expression: 1.927
  RQ DVL1 gene expression: 2.7 and 2.712
  RQ E2F1 gene expression: 7.1 and 7.081
  RQ EGFR gene expression: 2.0 and 1.985
  RQ ELK1 gene expression: 5.2 and 5.179
  RQ ERBB2 gene expression: 2.2 and 2.186
  RQ FADD gene expression: 1.854
  RQ FAS gene expression: 2.9 and 2.845
  RQ FGF2 gene expression: 5.5 and 5.503
  RQ FOS gene expression: 1.472
  RQ FYN gene expression: 2.2 and 2.240
  RQ FZD1 gene expression: 4.8 and 4.807
  RQ GRB2 gene expression: 0.855
  RQ GSK3B gene expression: 0.999
  RQ HRAS gene expression: 2.1 and 2.071
  RQ IGF1R gene expression: 1.052
  RQ ITGA2B gene expression: 5.4 and 5.437
  RQ ITGAV gene expression: 1.126
  RQ ITGB1 gene expression: 1.547
  RQ ITGB3 gene expression: 1.478
  RQ JUN gene expression: 4.5 and 4.475
  RQ KRAS gene expression: 4.8 and 4.786
  RQ MAP2K1 gene expression: 2.6 and 2.591
  RQ MAP3K5 gene expression: 1.752
  RQ MAPK1 gene expression: 2.1 and 2.124
  RQ MAPK3 gene expression: 1.762
  RQ MAPK8 gene expression: 1.293
  RQ MAPK14 gene expression: 3.0 and 3.025
  RQ MDM2 gene expression: 3.2 and 3.153
  RQ MYC gene expression: 4.3 and 4.304
  RQ NFKB1 gene expression: 2.2 and 2.156
  RQ NFKB2 gene expression: 3.6 and 3.621
  RQ NFKBIA gene expression: 1.342
  RQ NRAS gene expression: 1.862
  RQ PIK3CA gene expression: 1.265
  RQ PIK3R1 gene expression: 1.408
  RQ PTEN gene expression: 0.644
  RQ PTK2B gene expression: 0.803
  RQ PTK2 gene expression: 2.0 and 2.034
  RQ RAC1 gene expression: 1.199
  RQ RAF1 gene expression: 4.7 and 4.645
  RQ RB1 gene expression: 0.795
  RQ RELA gene expression: 2.4 and 2.403
  RQ RHOA gene expression: 1.541
  RQ SHC1 gene expression: 3.7 and 3.702
  RQ SMAD4 gene expression: 3.6 and 3.549
  RQ SOS1 gene expression: 5.0 and 4.992
  RQ SRC gene expression: 1.833
  RQ TCF3 gene expression: 3.2 and 3.166
  RQ TGFB1 gene expression: 1.267
  RQ TGFBR1 gene expression: 1.352
  RQ TGFBR2 gene expression: 1.069
  RQ TP53 gene expression: 0.5 and 0.471
  RQ VEGFA gene expression: 3.8 and 3.759
[2]
  IC50: 3.4 µM
[3]
  IC50: 3.9 µM
[4]
  IC50: 6.8 µM
[5]
  IC50: 5.3 µM
[6]
  displacement of ethidium bromide from ctDNA (fluorescence): decreased the ethidium bromide fluorescence
[7]
  IC50: 7.7 µM
[8]
  caspase-8 activity: caused the activation of all caspases analyzed
[9]
  IC50: 4.6 µM
